Test results as given in patent US6482654B1, “Method of detecting shikimic acid” (Syngenta Limited, priority 2000, dated 2002).

Test system: plants
Test: Shikimic acid/shikimate accumulation in glyphosate-treated plants, periodate/sulfite chromophore assay
Type: in vivo
Settings: plants treated with a lethal amount of glyphosate; 5-10 μL of extract of about 150 mg leaf tissue in 8-fold (w/v) 0.25N hydrochloric acid; 1 ml final solution; control about 0.1 AU
Procedure: In the performance of the methods of the invention, for detection of the chromophore, it is preferable to have an absorbance of at least 0.05 absorbance units (AU) for the untreated control plant test sample and an absorbance of less than 2.0 AU for the test sample with the greatest amount of shikimic acid/shikimate in order to obtain optimal results from spectrophotometric measurement of the chromophore. […] After reaction with the periodate reagent and quenching by 0.5 ml of a mixture comprising sulfite and sodium hydroxide, there was 1 ml of solution with an absorbance of about 1.8 AU, while an untreated control plant gave an absorbance of about 0.1 AU.

SMILES: O=C(O)CNCP(=O)(O)O [glyphosate, N-(phosphonomethyl) glycine]
- absorbance of the chromophore (shikimic acid/shikimate accumulated): about 1.8 AU
